The text below walks through data of EP3848017A1, “ORAL CARE COMPOSITION CONTAINING INDOLE COMPONENTS FOR TREATING CARIES” (3M Innovative Properties Company, priority 2020, dated 2021).

In one test the test system is lactic acid producing bacteria in an oral biofilm.
Assay: not given
The following applies: qualitative statement; amino acids, as described in EP 18183601.6; cited from earlier work.
For `N=C(N)NCCC[C@H](N)C(=O)O` [arginine], the “reducing the lactic-acid release of bacteria in a biofilm” value (“reducing the lactic-acid release” for short) is on record as “not effective”.

For the compound `N[C@@H](CC(=O)O)C(=O)O` [aspartic acid], the “reducing the lactic-acid release” value is “not effective”.

Consider `NC(=O)CC[C@H](N)C(=O)O` [glutamine], for which the “reducing the lactic-acid release” value is given as “not effective”.

Consider `NCC(=O)O` [glycine], for which the “reducing the lactic-acid release” value is reported as “useful”.

Take `N[C@@H](Cc1c[nH]cn1)C(=O)O` [histidine]: the “reducing the lactic-acid release” value was “not effective”.

As to `CC[C@H](C)[C@H](N)C(=O)O` [isoleucine], the “reducing the lactic-acid release” value is “useful”.

Turning to `CC(C)C[C@H](N)C(=O)O` [leucine], the “reducing the lactic-acid release” value was “useful”.

In the case of `NCCCC[C@H](N)C(=O)O` [lysine], the “reducing the lactic-acid release” value is “useful”.

As to `CSCC[C@H](N)C(=O)O` [methionine], the “reducing the lactic-acid release” value was “useful”.

Take `N[C@@H](Cc1ccccc1)C(=O)O` [phenylalanine]: the “reducing the lactic-acid release” value is listed as “useful”.

Take `O=C(O)[C@@H]1CCCN1` [proline]: the “reducing the lactic-acid release” value is on record as “not effective”.

Regarding `N[C@@H](CO)C(=O)O` [serine], the “reducing the lactic-acid release” value is listed as “useful”.

Take `C[C@@H](O)[C@H](N)C(=O)O` [threonine]: the “reducing the lactic-acid release” value is recorded as “useful”.

On to `N[C@@H](Cc1c[nH]c2ccccc12)C(=O)O` [tryptophan], for which the “reducing the lactic-acid release” value is “useful”.

`N[C@@H](Cc1ccc(O)cc1)C(=O)O` [tyrosine]: the “reducing the lactic-acid release” value is reported as “not effective”.

As to `CC(C)[C@H](N)C(=O)O` [valine], the “reducing the lactic-acid release” value is “useful”.

A further test concerns in vitro human saliva microcosm biofilm. Description: Determination of Lactic Acid Release (LAR) after Permanent Exposure Procedure (LDH-NAD-PMS-MTT enzyme assay). In kind it is cell-based. The following applies: Indole 0.07 wt.% in MCM-1% sucrose, about 26 hours biofilm growth, 37 °C, vs untreated control TC0, negative number = release of lactic acid reduced. Here is the method:
To determine the metabolic activity of the biofilm sample, the accumulation of lactic acid in the supernatant (1.0 ml PBS-solution with 5% sucrose per each biofilm sample disc) was measured by using the Lactic acid dehydrogenase (LDH)- Nicotinamide-adenine-dinucleotide (NAD)-Phenazine Methosulphate (PMS) - Thiazolyl blue tetrazolium bromide (MTT) - enzyme assay. To ensure that only freshly produced lactic acid is determined, the biofilm samples were washed four times with 1.0 ml PBS solution for 30 sec each. After 30 min the accumulated amount of lactic acid in the supernatant was measured by analyzing 50 µl of the supernatant. The lactic acid was quantified by the lactic acid specific enzyme assay described above. Known correlation between measured enzyme activity and amount of lactic acid was used to translate measured enzyme activity into the amount of lactic acid present in sample of the supernatant. In accordance to the validation of the in vitro human saliva microcosm biofilm model, a compound should lower the lactic acid release in permanent application of at least 40 or at least 50 % in comparison to the untreated biofilm control. […] Bovine sample disks of about 10 x 10 mm (+/- 2mm) were incubated in a 24 well plate containing 1.8 ml medium in an incubator at 37°C and 60 rpm circular movement. The treatment composition described below were added by pipetting and removed by a suction pump. • Day 1: Four-hours inoculation of bovine sample disks with saliva-mcm media (MCM = mucine containing medium plus 1 % sucrose) at 37 °C (without active substance). • Fresh medium (MCM-1% sucrose) containing the respective amounts of indole component as given in Table 2. This Treatment Composition was used for another 3-hour incubation. • Fresh medium (MCM-1% sucrose and Treatment Composition) for storage for about 14h at 37 °C. • Day 2: Fresh medium (MCM-1% sucrose and Treatment Composition) for 2-hour incubation. • Fresh medium (MCM-1% sucrose and Treatment Composition) for another 2-hour incubation. […]
A general note: Formazan colour is commonly taken as a measure of viable cells.
For orientation: inhibition means the percentage by which the read-out fell short of the control. A low value points to a response near the control. The compound `COc1ccc2[nH]cc(CC(=O)O)c2c1` [TC2 - IA2, 5-Methoxy-3-Indoleacetic acid] came in with an inhibition at 0.07 % of 87.8%.

Still in this test, the particulars now being: Indole 0.073 wt.% in MCM-1% sucrose, about 26 hours biofilm growth, 37 °C, vs untreated control TC0, negative number = release of lactic acid reduced.
The compound `O=C(O)CCc1c[nH]c2ccccc12` [TC1 - IA1, Indole-3-propionic acid] displayed an inhibition at 0.073 % of 95.3%.

The same test, now with this note: Indole 0.1 wt.% in MCM-1% sucrose, about 26 hours biofilm growth, 37 °C, vs untreated control TC0, negative number = release of lactic acid reduced.
`O=C(O)Cc1c[nH]c2ccccc12` [TC3 - IA3, Indole acetic acid]: the inhibition at 0.1 % stood at 78%.
